Results published in patent US4000281A, “Pyrazole derivatives” (priority 1971, dated 1976).
Like-named read-outs stand apart in the source and are kept apart here.

Tests used:
Assay type in all cases: in vivo, mice
Influenza viruses = experiment: Mouse-Survival Test (Test No. 1), Influenza virus strain not given; settings: unidentified influenza virus, 360 h; for response vs control in vivo at 500 mg/kg / response vs control in vivo at 5 mg/kg / response vs control in vivo at 50 mg/kg: read-out: Survival Index (S.I.); for responders at 500 mg/kg / responders at 5 mg/kg / responders at 50 mg/kg: read-out: Survival Percent
Influenza virus Jap 305 [1] = experiment: Mouse-Survival Test (Test No. 1), Influenza Jap 305; settings: for S.I.: significant if >1.24
Influenza virus Jap 305 [2] = settings: 1 dose, 30 minutes before infection, 15 multiples of LD50
[3] = Jap 305, 50 mg/kg PO, virus dose 15 multiples of LD50
[4] = Jap 305, 500 mg/kg IP, virus dose 22 multiples of LD50
[5] = Jap 305, 500 mg/kg PO, virus dose 15 multiples of LD50

Cc1[nH]nc(-c2ccncc2)c1-c1ccccc1O [Compound B, 3-(4-pyridyl)-4-(2-hydroxyphenyl)-5-methylpyrazole]
response vs control in vivo at 500 mg/kg (Influenza viruses; ip): 129% | responders at 500 mg/kg (Influenza viruses; ip): 0%

CCCc1[nH]nc(-c2ccncc2)c1-c1ccccc1O [Compound C, 3-(4-pyridyl)-4-(2-hydroxyphenyl)-5-n-propyl-pyrazole]
response vs control in vivo at 500 mg/kg (Influenza viruses; ip): 184% | responders at 500 mg/kg (Influenza viruses; ip): 50%

CC(C)c1[nH]nc(-c2ccncc2)c1-c1ccccc1O [Compound D, 3-(4-pyridyl)-4-(2-hydroxyphenyl)-5-isopropylpyrazole]
response vs control in vivo at 5 mg/kg (Influenza viruses; ip): 136% | response vs control in vivo at 50 mg/kg (Influenza viruses; ip): 131% | response vs control in vivo at 500 mg/kg (Influenza viruses; ip): 269% | responders at 5 mg/kg (Influenza viruses; ip): 0% | responders at 50 mg/kg (Influenza viruses; ip): 0% | responders at 500 mg/kg (Influenza viruses; ip): 100% | response vs control in vivo at 50 mg/kg (Influenza viruses; po): 167% | response vs control in vivo at 500 mg/kg (Influenza viruses; po): 214% | responders at 50 mg/kg (Influenza viruses; po): 40% | responders at 500 mg/kg (Influenza viruses; po): 60% | Survival Percent (Influenza virus Jap 305 [1]; [3]): 30% | S.I. (Influenza virus Jap 305 [1]; [3]): 1.31 | Survival Percent (Influenza virus Jap 305 [1]; [4]): 70% | S.I. (Influenza virus Jap 305 [1]; [4]): 2.16 | Survival Percent (Influenza virus Jap 305 [1]; [5]): 100% | S.I. (Influenza virus Jap 305 [1]; [5]): 2.12 | MDD (Mean Day of Death) (Influenza virus Jap 305 [2]; intranasal 2.5% suspension): 10.50 days | S.I. (Influenza virus Jap 305 [2]; intranasal 2.5% suspension): 1.49 | Survival Percent (Influenza virus Jap 305 [2]; intranasal 2.5% suspension): 40% | MDD (Mean Day of Death) (Influenza virus Jap 305 [2]; intranasal 5% suspension): 9.76 days | S.I. (Influenza virus Jap 305 [2]; intranasal 5% suspension): 1.38 | Survival Percent (Influenza virus Jap 305 [2]; intranasal 5% suspension): 30% | MDD (Mean Day of Death) (Influenza virus Jap 305 [2]; intranasal 10% suspension): 13.00 days | S.I. (Influenza virus Jap 305 [2]; intranasal 10% suspension): 1.84 | Survival Percent (Influenza virus Jap 305 [2]; intranasal 10% suspension): 60%

CCCCc1[nH]nc(-c2ccncc2)c1-c1ccccc1O [Compound E, 3-(4-pyridyl)-4-(2-hydroxyphenyl)-5-n-butylpyrazole]
response vs control in vivo at 50 mg/kg (Influenza viruses; ip): 130% | response vs control in vivo at 500 mg/kg (Influenza viruses; ip): 162% | responders at 50 mg/kg (Influenza viruses; ip): 10% | responders at 500 mg/kg (Influenza viruses; ip): 10%

COc1ccc(O)c(-c2c(-c3ccncc3)n[nH]c2C)c1 [Compound F, 3-(4-pyridyl)-4-(2-hydroxy-5-methoxy-phenyl)-5-methylpyrazole]
response vs control in vivo at 500 mg/kg (Influenza viruses; ip): 129% | responders at 500 mg/kg (Influenza viruses; ip): 0%

CCc1nn(C)c(-c2ccncc2)c1-c1ccccc1O [Compound G, 2-methyl-3-(4-pyridyl)-4-(2-hydroxyphenyl)-5-ethyl-pyrazole]
response vs control in vivo at 50 mg/kg (Influenza viruses; ip): 130% | response vs control in vivo at 500 mg/kg (Influenza viruses; ip): 217% | responders at 50 mg/kg (Influenza viruses; ip): 0% | responders at 500 mg/kg (Influenza viruses; ip): 60%

CCc1nn(C(C)C)c(-c2ccncc2)c1-c1ccccc1O [Compound H, 2-isopropyl-3-(4-pyridyl)-4-(2-hydroxyphenyl)-5-ethylpyrazole]
response vs control in vivo at 50 mg/kg (Influenza viruses; ip): 135% | response vs control in vivo at 500 mg/kg (Influenza viruses; ip): 191% | responders at 50 mg/kg (Influenza viruses; ip): 0% | responders at 500 mg/kg (Influenza viruses; ip): 30%

CCCCn1nc(CC)c(-c2ccccc2O)c1-c1ccncc1 [Compound I, 2-n-butyl-3-(4-pyridyl)-4-(2-hydroxyphenyl)-5-ethylpyrazole]
response vs control in vivo at 5 mg/kg (Influenza viruses; ip): 132% | response vs control in vivo at 50 mg/kg (Influenza viruses; ip): 148% | response vs control in vivo at 500 mg/kg (Influenza viruses; ip): 191% | responders at 5 mg/kg (Influenza viruses; ip): 0% | responders at 50 mg/kg (Influenza viruses; ip): 0% | responders at 500 mg/kg (Influenza viruses; ip): 14%
